Laboratory results reported in US10882817B2, “Acetylsalicylic acid derivative crystal, its preparation method and use” (Zhejiang Yuejia Pharmaceuticals Co., Ltd, priority 2015, dated 2021).

Assay: Stability test of 2-(diethylamino)ethyl 2-acetoxybenzoate hydrochloride crystal
Format: physicochemical
Details: for pH value / Other related substances / Related substances 2-(diethylamino)ethyl-salicylate hydrochloride / Related substances Acetylsalicylic acid / Related substances Salicylic acid / Content: stored at 25° C.±2° C.; for pH value: 1.0 g sample in 50 mL water, filtrate; for Other related substances / Related substances 2-(diethylamino)ethyl-salicylate hydrochloride / Related substances Acetylsalicylic acid / Related substances Salicylic acid: HPLC; for Content: HPLC external standard method
Description: The 2-(diethylamino)ethyl 2-acetoxybenzoate hydrochloride crystals obtained in Example 1 is taken and placed under the conditions of 25° C.±2° C., and sampling is carried out at month 0, month 3, month 6, month 9, and month 12, respectively, followed by the detection of the pH value, related substances and their contents. In the process, the pH value is obtained by taking about 1.0 g of a sample, adding 50 mL of water, shaking for 10 minutes, filtration, taking 10 mL of a subsequent filtrate and detection with a pH meter; and the related substances and the contents are both detected by high performance liquid chromatography (an external standard method).

In the case of CCN(CC)CCOC(=O)c1ccccc1OC(C)=O.Cl [2-(diethylamino)ethyl 2-acetoxybenzoate hydrochloride], the stability (after having been stored at 25° C.±2° C. for 12 months) is reported as “very good stability”, the pH value (Month 0) is reported as 4.82 and the Other related substances (Month 0) is reported as “Not detected”. The “Related substances 2-(diethylamino)ethyl-salicylate hydrochloride” value (Month 0) was 0.58%, the “Related substances Acetylsalicylic acid” value (Month 0) was 0.0059% and the “Related substances Salicylic acid” value (Month 0) was “Not detected”. The Content (Month 0) was 99.58%, the pH value (Month 3) was 4.83 and the Other related substances (Month 3) was “Not detected”. The “Related substances 2-(diethylamino)ethyl-salicylate hydrochloride” value (Month 3) was 0.65%, the “Related substances Acetylsalicylic acid” value (Month 3) was 0.0063% and the “Related substances Salicylic acid” value (Month 3) was 0.00254%. The Content (Month 3) was 99.51%, the pH value (Month 6) was 4.81 and the Other related substances (Month 6) was “Not detected”. The “Related substances 2-(diethylamino)ethyl-salicylate hydrochloride” value (Month 6) was 0.58%, the “Related substances Acetylsalicylic acid” value (Month 6) was 0.0070% and the “Related substances Salicylic acid” value (Month 6) was 0.00101%. The Content (Month 6) was 99.59%, the pH value (Month 9) was 4.79 and the Other related substances (Month 9) was “Not detected”. For the same compound, the “Related substances 2-(diethylamino)ethyl-salicylate hydrochloride” value (Month 9) was 0.60%, the “Related substances Acetylsalicylic acid” value (Month 9) was 0.0048% and the “Related substances Salicylic acid” value (Month 9) was 0.00083%. For the same compound, the Content (Month 9) was 99.57%, the pH value (Month 12) was 4.83 and the Other related substances (Month 12) was “Not detected”. For the same compound, the “Related substances 2-(diethylamino)ethyl-salicylate hydrochloride” value (Month 12) was 0.62%, the “Related substances Acetylsalicylic acid” value (Month 12) was 0.0053% and the “Related substances Salicylic acid” value (Month 12) was 0.00103%. For the same compound, the Content (Month 12) was 99.58%.
